According to patent US6946465B2, “Immunosuppressive effects of pteridine derivatives” (4 AZA Bioscience NV, priority 1999, dated 2005):

What was measured:
Assay type in all cases: cell-based, human
[1] = system: highly purified T cells stimulated by immobilized anti-CD3 mAb; test: CD3 assay: T-cell proliferation stimulated by anti-CD3 mAb + PMA (BrdU); conditions: Table 1; anti-CD3 mAb + PMA 0.5 ng/ml, 48 h; read-out: CD 3 IC50
Text: (§1) Various models may be used for testing an immunosuppressive effect. In vivo, for example, different transplantation models are available. They are strongly influenced by different immunogenicities, depending on the donor and recipient species used and depending on the nature of the transplanted organ. The survival time of transplanted organs can thus be used to measure the suppression of the immune response. In vitro, the most used models are lymphocyte activation tests. Usually activation is measured via lymphocyte proliferation. Inhibition of proliferation thus always means immunosuppression under the experimental conditions applied. There exist different stimuli for lymphocyte activation: • a) co-culture of lymphocytes of […] (mixed lymphocyte reaction, hereinafter referred as MLR) in a so-called mixed lymphocyte culture test: lymphocytes expressing different minor and major antigens of the HLA-DR type (=alloantigens) activate each other non-specifically. • b) a CD3 assay here there is an activation of the T-lymphocytes via an exogenously added antibody (OKT3).
(§2) All reagents were dissolved in 0.5 ml dimethylsulfoxide (hereinafter referred as DMSO) and further diluted in culture medium before use for the following in vitro experiments. The commercially available culture medium consisted of RPMI-1640+10% foetal calf serum (FCS).
(§3) T cells were purified by removing non-T cells. Briefly, monocytes were removed by cold agglutination. The resulting lymphoid cells were further purified by a cell enrichment immunocolumn [Cellect Human T commercially available from Biotex, Edmonton, Alberta, Canada)] by a process of negative selection.
(§4) Highly purified T cells (10^6/ml) were stimulated by immobilized anti-CD3 or anti-CD28 monoclonal antibodies (hereinafter referred as mAb) in the presence of PMA. Anti-CD3 mAb (available from CLB, Amsterdam, Netherlands) were fixed on the 96-microwell plates by incubating the wells with 50 μl of mAb solution (1/800 dilution in culture medium). For anti-CD28 mAb (available from CLB, Amsterdam, Netherlands) 50 μl (1/650 dilution in culture medium) was added directly to the wells. Further, a 20 μl phorbol myristate acetate (hereinafter referred as PMA (commercially available from Sigma, St. Louis, Mo., USA) solution (final concentration: 0.5 ng/ml) was added. Subsequently, 20 μl of a compound described in some of the previous examples were added by serial dilution in triplicate wells. Finally 100 μl of the T-cell suspension (10^6/ml) was added. After 48-hour incubation at 37° C. in 5% CO2 20 μl of a bromo-deuridine (hereinafter referred as BrdU) 100 μM solution (commercially available as Cell Proliferation Elisa from Boehringer-Mannheim Belgium) was added to each well. After a further overnight incubation, T-cell proliferation was measured using a colorimetric immunoassay for qualification of cell proliferation based on the incorporation of BrdU during DNA synthesis. Optical density (hereinafter referred as OD) was measured by a Behring EL311 plate reader at 450 nm (reference wavelength: 690 nm). Inhibition of proliferation by a compound (drug) described in some of the previous examples was counted using the formula: [formula]

[2] = system: highly purified T cells stimulated by anti-CD28 mAb; test: CD28 assay: T-cell proliferation stimulated by anti-CD28 mAb + PMA (BrdU); conditions: Table 1; anti-CD28 mAb + PMA 0.5 ng/ml, 48 h
Text: as §1, §2, §3, §4

[3] = system: peripheral blood mononuclear cells (PBMC) with allogeneic PBMC or RPMI1788 stimulator cells; test: Mixed lymphocyte reaction (MLR) test, [3H]-thymidine incorporation; conditions: Table 1; 5 days incubation + 16 h thymidine
Text: as §1, §2
Peripheral blood mononuclear cells (hereinafter referred as PBMC) were isolated from heparinized peripheral blood by density gradient centrifugation over Lymphoprep (Nycomed, Maorstua, Norway). Allogeneic PBMC or Eppstein-Barr Virus-transformed human B cells [commercially available under the trade name RPM11788 (ATCC name CCL156)] which strongly express B7-1 and B7-2 antigens were used as stimulator cells after irradiation with 30 Gy. MLR was performed in triplicate wells. After 5 days incubation at 37° C., 1 μCi [^3 H]-thymidine was added to each cup. After a further 16 hours incubation, cells were harvested and counted in a β-counter. Inhibition of proliferation by a compound (drug) described in some of the previous examples was counted using the formula: [formula] wherein cpm is the thymidine count per minute. Assays for CD3 and CD 28

Row | Compound | IC50 [1] [µM] | IC50 [2] [µM] | IC50 [3] [µM]
1 | CCOC(=O)c1nc2c(=O)n(C)c(=O)n(C)c2nc1NCC(C)(C)C [Example 61, 6-ethylcarboxylate-7-neopentylamino-1,3-dimethyl-lumazine] | 80 | 16 | 16
2 | Cn1c(=O)c2nc(C=O)c(N3CCSCC3)nc2n(C)c1=O [Example 69, 6-formyl-7-thiomorpholino-1,3-dimethyl-lumazine] | 80 | 116 | 116
3 | CCCCNc1nc2c(nc1C(=O)OCC)c(=O)n(C)c(=O)n2C [Example 60, 6-ethylcarboxylate-7-n-butylamino-1,3-dimethyl-lumazine] | 56 | 92 | 13
4 | Cn1c(=O)c2nc(C(Cl)Cl)c(SCc3ccccc3)nc2n(C)c1=O [Example 71, 6-dichloromethyl-7-mercaptobenzyl-1,3-dimethyl-lumazine] | > 20 | > 20 | 56
5 | Cn1c(=O)c2nc(C=O)c(NCCO)nc2n(C)c1=O [Example 67, 6-formyl-7-hydroxyethylamino-1,3-dimethyl-lumazine] | 104 | 104 | 104
6 | Cn1c(=O)c2nc(C#N)c(SCc3ccccc3)nc2n(C)c1=O [Example 59, 6-cyano-7-mercaptobenzyl-1,3-dimethyl-lumazine] | 18.5 | 16 | > 200
7 | Cc1nc2c(nc1NCc1ccccc1)c(=O)n(C)c(=O)n2C [Example 73, 6-benzylamino-1,3,7-trimethyl-lumazine] | 92 | 128 | 44
8 | COC(=O)/C=C/c1cnc2c(=O)n(C)c(=O)n(C)c2n1 [Example 24, 7-[(E)-2-methoxycarbonylethenyl]-1,3-dimethyl-lumazine] | 12 | 12 | 15
9 | CCOC(=O)c1nc2c(=O)n(C)c(=O)n(C)c2nc1N1CCCCC1 [Example 63, 6-ethylcarboxylate-7-piperidinyl-1,3-dimethyl-lumazine] | 128 | 80 | 104
10 | Cn1c(=O)c2nc(C=Cc3ccc(OC(F)(F)F)cc3)cnc2n(C)c1=O [Example 80, 6-[2-(p-trifluoromethoxyphenyl)ethenyl]-1,3-dimethyllumazine] |  |  | 9
11 | Cn1c(=O)c2ncc(/C=C/c3ccccc3)nc2n(C)c1=O [Example 26, 1,3-dimethyl-7-(E)-styryllumazine] | 115 | 115 | 50
12 | CCCCN(CCCC)c1nc2c(nc1C#N)c(=O)n(C)c(=O)n2C [Example 56, 6-cyano-7-dibutylamino-1,3-dimethyl-lumazine] | 152 | 116 | 12
13 | COC(=O)C(Br)=Cc1cnc2c(n1)c(=O)n(C)c(=O)n2C [Example 12, 6-(2-bromo-2-methoxycarbonyl-ethenyl)-1,3-dimethyllumazine] | 0.58 | 0.08 | 
14 | CCOC(=O)c1nc2c(=O)n(C)c(=O)n(C)c2nc1Cl [Example 48, 6-ethylcarboxylate-7-chloro-1,3-dimethyl-lumazine] |  |  | 12.5
15 | Cn1c(=O)c2ncc(Cl)nc2n(C)c1=O [Example 31, 7-chloro-1,3-dimethyllumazine] |  | 0.1 | 12
16 | CCOC(=O)CSc1nc2c(nc1C#N)c(=O)n(C)c(=O)n2C [Example 81, 6-cyano-7-ethylmercaptoacetate-1,3-dimethyllumazine] |  |  | 12.2
17 | COC(=O)C(Br)C(Br)c1cnc2c(=O)n(C)c(=O)n(C)c2n1 (stereo not drawn) [Example 25, 7-[1,2-dibromo-2-(methoxycarbonyl)ethyl)-1,3-dimethyllumazine] |  |  | 1.9
18 | Cn1c(=O)c2ncc(C(Br)C(Br)c3ccccc3)nc2n(C)c1=O (stereo not drawn) [Example 27, 7-(1,2-dibromo-2-phenylethyl)-1,3-dimethyllumazine] |  | 0.1 | 12
19 | Cn1c(=O)c2nc(C(Br)C(Br)c3ccccc3)cnc2n(C)c1=O (stereo not drawn) [Example 8, 6-(1,2-dibromo-2-phenylethyl)-1,3-dimethyllumazine] |  | 1.55 | 15
